# Measurements published in patent US20150283120A1, “ANTIBIOTIC METHODS AND COMPOSITIONS FOR BACTERIA INFECTIONS” (THE UNIVERSITY OF CHICAGO, priority 2012, published 2015).
# Counter-ions that a name gives are not always drawn.
# How the values were obtained:
# Format in all cases: cell-based, Staphylococcus aureus
# vraR transcription = assay: Tertiary screen: qRT-PCR of vraR in strain 923; settings: for Effect on vraSR Transcription: Compound alone: compound 10 μM, no oxacillin
# [1] = system: MRSA strain USA300 Pvra-lux; settings: compound 10 μM + oxacillin 2 μg/mL; for RG avg (relative growth): ratio of OD600 to oxacillin alone, four runs
# Procedure: (§1) In the secondary screen each microtiter plate contained either cells in TSB alone (16 replicates), cells with oxacillin (2 μg/mL, 31 replicates), or cells with test compound and oxacillin (2 μg/mL, 49 wells). Each compound was assayed in four separate biological replicates.
# (§2) All compounds classified in the primary screen as synergists that were vraSR-stimulating or -repressing (as shown in Table 8) were screened in a secondary assay for their effects on both growth and Pvra::lux induction by oxacillin. […] Each compound was tested four separate times at 10 μM in the presence of oxacillin (2 μg/mL) and luminescence was measured every 15 minutes. Relative growth (RG) and relative luminescence (RL) was calculated as the ratio between the OD600 or max LU value in the presence of compound and oxacillin over the average from pooled control values obtained from the same plate. […] Compounds that produced an average RG (ratio of the OD600 of the culture grown with test compound combined with oxacillin to that of oxacillin alone) of <0.8 were classified as oxacillin synergists or potentiators. The relative luminescence (RL) was the ratio of the LU produced in the presence of the test compound combined with oxacillin to that produced by oxacillin alone. Compounds were classified as “vraSR repressors” (mean RL of <0.8), “vraSR stimulators”, (mean RL>1.2), and “vraSR neutral” (mean RL between 0.80-1.2). […] In contrast, 34 compounds had no effect on growth in the presence of oxacillin (“un” in the OD600 category). Among the oxacillin potentiators, there were 2 vraSR stimulators, 3 vraSR neutral compounds and 10 vraSR repressors.
# [2] = system: vraSR transcription (Pvra::lux); settings: compound 10 μM + oxacillin 2 μg/mL; for RL avg (relative luminescence): ratio of LU to oxacillin alone, four runs
# Procedure: as §1, §2
Compound,Effect on vraSR Transcription: Compound alone (vraR transcription; qRT-PCR of vraR),OD600 category [1],RG avg (relative growth) [1],Effect on vraSR transcription [2],RL avg (relative luminescence) [2],"Effect on vraSR Transcription: With oxacillin (vraR transcription; qRT-PCR of vraR, compound 10 μM + oxacillin 2 μg/mL)",classification of lux screen result against qRT-PCR (true/false repressor or stimulator) (vraR transcription; in the presence of oxacillin)
C[C@H]1[C@H](C)CC[C@]2(C(=O)O)CC[C@]3(C)C(=CC[C@@H]4[C@@]5(C)CC[C@H](O)C(C)(C)[C@@H]5CC[C@]43C)[C@H]12 [Ursolic acid],stimulate,inhibited (of <0.8 were classified as oxacillin synergists or potentiators),0.77,repress (“vraSR repressors” (mean RL of <0.8)),0.71,,
CCCCc1oc2ccccc2c1C(=O)c1cc(I)c(OCCN(CC)CC)c(I)c1 [Amiodarone hydrochloride],stimulate,inhibited (of <0.8 were classified as oxacillin synergists or potentiators),0.84,"stimulate (“vraSR stimulators”, (mean RL>1.2))",0.68,,
Spiramycin,None,inhibited (of <0.8 were classified as oxacillin synergists or potentiators),0.43,repress (“vraSR repressors” (mean RL of <0.8)),0.31,super-stimulate,
CCN1CCN(C(=O)N[C@@H](C(=O)N[C@@H]2C(=O)N3C(C(=O)O)=C(CSc4nnnn4C)CS[C@H]23)c2ccc(O)cc2)C(=O)C1=O [Cefoperazone dihydrate],stimulate,inhibited (of <0.8 were classified as oxacillin synergists or potentiators),0.79,neutral (“vraSR neutral” (mean RL between 0.80-1.2)),0.77,,
CC(=O)OCC1=C(C(=O)O)N2C(=O)[C@@H](NC(=O)Cc3cccs3)[C@H]2SC1 [Cephalothin sodium salt],stimulate,inhibited (of <0.8 were classified as oxacillin synergists or potentiators),0.45,neutral (“vraSR neutral” (mean RL between 0.80-1.2)),0.36,,
CCCC(=O)Nc1ncnc2c1ncn2[C@@H]1O[C@@H]2COP(=O)(O)O[C@H]2[C@H]1OC(=O)CCC [Bucladesine sodium salt],,un (no effect on growth in the presence of oxacillin (“un” in the OD600 category)),1.02,neutral (“vraSR neutral” (mean RL between 0.80-1.2)),0.94,,
CCN(CC)CCc1nc(-c2ccccc2)no1.O=C(O)CC(O)(CC(=O)O)C(=O)O [Oxalamine citrate salt],,un (no effect on growth in the presence of oxacillin (“un” in the OD600 category)),1.03,neutral (“vraSR neutral” (mean RL between 0.80-1.2)),1.00,,
C[n+]1cc2c3c(ccc2c2ccc4cc5c(cc4c21)OCO5)OCO3 [Sanguinarine],,inhibited (of <0.8 were classified as oxacillin synergists or potentiators),0.78,repress (“vraSR repressors” (mean RL of <0.8)),0.47,,
CCCCN(CCCC)CCCOC(=O)c1ccc(N)cc1 [Butacaine],,un (no effect on growth in the presence of oxacillin (“un” in the OD600 category)),1.03,neutral (“vraSR neutral” (mean RL between 0.80-1.2)),0.98,,
C[C@@H]1[C@H](O)[C@@H](C)/C=C/C=C/CC/C=C/C=C/C=C/C=C/C(O[C@H]2O[C@H](C)[C@@H](O)[C@H](N)[C@@H]2O)CC2O[C@](O)(CC(O)C(O)CCC(O)CC(O)CC(O)CC(=O)O[C@H]1C)CC(O)C2C(=O)O (some centres unmarked) [Nystatine],,un (no effect on growth in the presence of oxacillin (“un” in the OD600 category)),1.00,neutral (“vraSR neutral” (mean RL between 0.80-1.2)),1.04,,
C[N+]12CCC(CC1)C(OC(=O)C(O)(c1ccccc1)c1ccccc1)C2 (centres unmarked) [Clidinium bromide],,un (no effect on growth in the presence of oxacillin (“un” in the OD600 category)),0.97,neutral (“vraSR neutral” (mean RL between 0.80-1.2)),0.95,,
CN(C)CCCN1c2ccccc2Sc2ccccc21 [Promazine hydrochloride],,un (no effect on growth in the presence of oxacillin (“un” in the OD600 category)),1.09,neutral (“vraSR neutral” (mean RL between 0.80-1.2)),1.08,,
CC1(C)S[C@@H]2[C@H](NC(=O)[C@H](NC(=O)N3CCNC3=O)c3ccccc3)C(=O)N2[C@H]1C(=O)O [Azlocillin sodium salt],,un (no effect on growth in the presence of oxacillin (“un” in the OD600 category)),0.91,neutral (“vraSR neutral” (mean RL between 0.80-1.2)),0.78,,
CC(Oc1ccccc1)C(=O)N[C@@H]1C(=O)N2[C@@H]1SC(C)(C)[C@@H]2C(=O)O (some centres unmarked) [Phenethicillin potassium salt],,un (no effect on growth in the presence of oxacillin (“un” in the OD600 category)),0.94,neutral (“vraSR neutral” (mean RL between 0.80-1.2)),0.88,,
Trimeprazine tartrate,,un (no effect on growth in the presence of oxacillin (“un” in the OD600 category)),1.04,neutral (“vraSR neutral” (mean RL between 0.80-1.2)),0.96,,
O=C(c1ccc(OCCN2CCCCC2)cc1)c1c(-c2ccc(O)cc2)sc2cc(O)ccc12 [Raloxifene hydrochloride],,un (no effect on growth in the presence of oxacillin (“un” in the OD600 category)),0.97,neutral (“vraSR neutral” (mean RL between 0.80-1.2)),0.85,,
"CCN(CC)CCOc1ccc(C(=C(Cl)c2ccccc2)c2ccccc2)cc1 (racemic) [Clomiphene citrate (Z,E), 2-(4-(2-chloro-1,2-diphenylethenyl)phenoxy)-N,N-diethyl-ethanamine]",,inhibited (of <0.8 were classified as oxacillin synergists or potentiators),0.68,repress (“vraSR repressors” (mean RL of <0.8)),0.39,,
O=c1[nH]c2ccccc2n1CCCN1CCC(n2c(=O)[nH]c3cc(Cl)ccc32)CC1 [Domperidone],,un (no effect on growth in the presence of oxacillin (“un” in the OD600 category)),0.91,neutral (“vraSR neutral” (mean RL between 0.80-1.2)),0.85,,
CCC(=O)OCC(=O)[C@@]1(OC(=O)CC)[C@@H](C)C[C@H]2[C@@H]3CCC4=CC(=O)C=C[C@]4(C)[C@@]3(Cl)[C@@H](O)C[C@@]21C [Beclomethasone dipropionate],,un (no effect on growth in the presence of oxacillin (“un” in the OD600 category)),0.96,neutral (“vraSR neutral” (mean RL between 0.80-1.2)),0.96,,
OC(Cn1cncn1)(Cn1cncn1)c1ccc(F)cc1F [fluconazole],,,,,,,false stimulator
